Results reported in patent US20050202511A1, “AMP-activated protein kinase (AMPK) inhibitor screening assay” (priority 2002, published 2005).
Several values for one entry are separate records, joined by “and”; a condition that tells them apart may be missing. Identical values can stand only once. Like-named read-outs stand apart in the source and are kept apart here.

Tests used:
[1] = biological target: T1, IMPDH2 CBS1-2 (WT) (Homo sapiens, UniProt P12268); experiment: Filter binding assay, isolated CBS domain pair; conditions: single-site model
T1 construct: DNAs encoding residues 112-232 or the full-length protein (1-514) were amplified; His tag (pHAT20 vector); made in house; host or cells: E. coli
Source text: To examine whether binding of adenine nucleotides is a general function for CBS domains, or is specific to the γ subunits of AMPK, IMP dehydrogenase (IMPDH) was also studied. Retinitis pigmentosa can be caused by an R224P mutation in the second CBS domain of the IMPDH1 isoform (27). However, the IMPDH2 isoform is 84% identical in amino acid sequence with IMPDH1, and the arginine mutated in retinitis pigmentosa is conserved. Because the IMPDH2 isoform is ubiquitously expressed and a suitable cDNA to use as a template for PCR was more readily available, DNA encoding the single pair of CBS domains from human IMPDH2 was cloned, an R224P mutation was created and expressed both the wild type and the mutant as His-tagged proteins in E. coli.
For IMPDH2, DNAs encoding residues 112-232 or the full-length protein (1-514) were amplified using human liver cDNA (Clontech) as template, and cloned into pHAT20 (Clontech) using 5′-AgeI and 3′-KpnI sites added to the primers. For the other constructs, DNAs encoding residues 582-840 of CLC2, or 416-551 of cystathionine â-synthase, were amplified using human liver cDNA as template, and cloned into pGEX-KG as above using 5′-BamHI and 3′-XhoI sites added to the primers. All mutations were created using the Stratagene QuikChange Site-directed Mutagenesis system.
The IMPDH2 constructs were His-tagged and were purified on chelating-Sepharose (Pharmacia) charged with 50 mM CoCl2 according to manufacturer's instructions.
Various concentrations of [^14C]-AMP, [γ^32P] […] Reactions were stopped by spotting 10 ìl onto a Millipore MF Filter Membrane disc and rapidly washing under high vacuum with 1 ml of ice-cold TBS. Radioactivity was determined on the filters by scintillation counting. Non-specific binding (which was trivial) was determined by performing the assay with GST as a control, and was subtracted. […] Data were fitted to the binding models given in the text, using GraphPad Prism 3. […]

[2] = biological target: T2, AMPK-γ2 CBS1-2 (H383R) (Homo sapiens, UniProt Q9UGJ0, H383R); experiment: Filter binding assay, GST-CBS domain fusion; conditions: for Kd: single-site model
T2 construct: the N-terminal pair (CBS1-2, residues 274-410); made in house; host or cells: E. coli BL21 (DE3)
Protocol: (§1) The present inventors also used site-directed mutagenesis to create four of the mutations in CBS1-2 that cause WPWS, i.e. R302Q, H383R and T400N, and Lins (which inserts a leucine residue in the linker between CBS1 and CBS2).
(§2) Various concentrations of [^14C]-AMP, [γ^32P] […] Reactions were stopped by spotting 10 ìl onto a Millipore MF Filter Membrane disc and rapidly washing under high vacuum with 1 ml of ice-cold TBS. Radioactivity was determined on the filters by scintillation counting. Non-specific binding (which was trivial) was determined by performing the assay with GST as a control, and was subtracted. […] Data were fitted to the binding models given in the text, using GraphPad Prism 3. Estimates of parameters resulting from fits are quoted in the text and Table 1±standard error, and the curves shown in figures are theoretical curves obtained using those estimates.

[3] = biological target: T3, AMPK-γ2 CBS1-2 (Lins) (Homo sapiens, UniProt Q9UGJ0, INS350L); experiment: Filter binding assay, GST-CBS domain fusion; conditions: single-site model
T3 construct: fused on or other part: GST at the N-terminus followed by a hexaglycine spacer (pGEX-KG)
Protocol: as §1, §2

[4] = biological target: T4, AMPK-γ2 CBS1-2 (T400N) (Homo sapiens, UniProt Q9UGJ0, T400N); experiment: Filter binding assay, GST-CBS domain fusion; conditions: for Kd: single-site model
T4 construct: the N-terminal pair (CBS1-2, residues 274-410); made in house; host or cells: E. coli BL21 (DE3)
Protocol: as §1, §2

[5] = biological target: T5, AMPK-γ2 CBS1-2 (WT) (Homo sapiens, UniProt Q9UGJ0); experiment: Filter binding assay, GST-CBS domain fusion
T5 construct: the N-terminal pair (CBS1-2, residues 274-410); made in house; host or cells: E. coli BL21 (DE3)
Source text: The boundaries of the CBS domains were taken from the alignments by Bateman. Using a plasmid encoding human γ2 as the template, PCR was used to produce DNAs encoding all four CBS domains (CBS1-4, residues 274-569), the N-terminal pair (CBS1-2, residues 274-410) or the C-terminal pair (CBS3-4, residues 430-556). The PCR primers had been designed to create BamHI and XhoI sites at the ends, and these were used to insert them into a vector that created a fusion protein with glutathione-S-transferase at the N-terminal end followed by a hexaglycine spacer, with the CBS domains at the C-terminus. All three constructs were expressed in E. coli and could be purified on glutathione-Sepharose as soluble proteins of the expected sizes in good yield (CBS1-4, 61 kDa, 5 mg/L of culture; CBS1-2, 43 kDa, 2 mg/L; CBS3-4, 43 kDa, 2 mg/L).
Site-directed mutagenesis was used to create the point mutation in CBS1 that causes hereditary heart disease (R302Q).
as §2

[6] = biological target: T6, AMPK-γ1 CBS1-4 (UniProt P80385); experiment: Filter binding assay, GST-CBS domain fusion; design: species or system rat; conditions: for Kd: two site Hill plot model, read-out: B0.5
T6 construct: B0.5; other: two site Hill plot model; h (Hill coefficient); fused on or other part: GST at the N-terminus (pGEX-KG, glycine spacer)
Protocol: The construct was expressed in E. coli and could be purified on glutathione-Sepharose as a soluble protein of the expected size (62 kDa) in good yield (3 mg/L of culture).
DNA encoding the CBS1-4 domains of the γ1 isoform was produced using PCR with a rat y1-encoding pcDNA3 plasmid as template. The primers used were: 5′-CGCGGATCCGCGATGGAGACGGTCATTTCTTCA-3′ (sense), 5′-CCGCTCGAGCGGGGGCTTCTTCTCTCCACCTGT-3′ (antisense). The PCR products was sub-cloned into pGEX-KG as above.
as §2

T2 sequence (Q9UGJ0 274-410 H383R): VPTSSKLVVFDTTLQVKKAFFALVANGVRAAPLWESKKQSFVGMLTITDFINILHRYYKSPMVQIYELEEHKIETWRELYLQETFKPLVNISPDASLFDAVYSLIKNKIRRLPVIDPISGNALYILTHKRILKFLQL
T4 sequence (Q9UGJ0 274-410 T400N): as the sequence (Q9UGJ0 274-410 H383R) above, with R110H, T127N counted along it
T5 sequence (Q9UGJ0 274-410): as the sequence (Q9UGJ0 274-410 H383R) above, with R110H counted along it
T3 sequence (Q9UGJ0 with tags, fused parts or gaps INS350L): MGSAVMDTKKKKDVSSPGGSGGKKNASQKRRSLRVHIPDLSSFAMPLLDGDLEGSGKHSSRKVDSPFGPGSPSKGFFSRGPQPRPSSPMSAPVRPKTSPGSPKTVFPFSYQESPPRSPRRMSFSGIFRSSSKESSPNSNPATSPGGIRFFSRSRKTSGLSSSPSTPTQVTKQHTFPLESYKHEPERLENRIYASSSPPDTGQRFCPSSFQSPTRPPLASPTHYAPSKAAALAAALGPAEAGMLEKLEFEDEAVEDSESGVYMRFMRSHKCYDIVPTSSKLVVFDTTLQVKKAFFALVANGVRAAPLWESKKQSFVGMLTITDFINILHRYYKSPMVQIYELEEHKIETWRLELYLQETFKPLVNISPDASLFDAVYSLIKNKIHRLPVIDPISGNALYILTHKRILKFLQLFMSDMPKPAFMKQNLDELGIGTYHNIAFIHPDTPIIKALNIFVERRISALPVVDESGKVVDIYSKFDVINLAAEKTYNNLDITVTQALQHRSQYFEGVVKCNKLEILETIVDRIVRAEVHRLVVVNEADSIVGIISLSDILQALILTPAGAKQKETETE
T1 sequence (P12268 112-232): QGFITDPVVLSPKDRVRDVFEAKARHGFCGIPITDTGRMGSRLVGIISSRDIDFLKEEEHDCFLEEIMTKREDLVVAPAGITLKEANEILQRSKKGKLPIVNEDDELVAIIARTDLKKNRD

Compound | Kd [1] | increase in Kd relative to wild type [2] | Kd [2] | Kd [3] | increase in Kd relative to wild type [4] | Kd [4] | Kd [5] | maximal binding (Bmax) ([5]; [14C]AMP) | h (Hill coefficient) [6] | Kd [6] | Kd ([5]; single-site model, 5 mM MgCl2 included for ATP)
Nc1ncnc2c1ncn2[C@@H]1O[C@H](COP(=O)(O)O)[C@@H](O)[C@H]1O [AMP, adenosine monophosphate] | 437 ± 53 µM | 28 fold | 1500 ± 210 µM | 63 ± 7 µM | 10 fold | 556 ± 56 µM | 53 ± 5 µM | 0.95±0.05 moles of AMP per mole of protein | 1.6±0.1 and 1.6 ± 0.2 | 20 ± 1 µM | 
Nc1ncnc2c1ncn2[C@@H]1O[C@H](COP(=O)(O)OP(=O)(O)OP(=O)(O)O)[C@@H](O)[C@H]1O [ATP] | 54 µM |  | 1570 ± 140 µM | 202 ± 22 µM |  | 952 ± 55 µM |  |  | 1.9 ± 0.2 | 119 ± 7 µM | 175 ± 17 µM
